Laboratory results reported in ChEMBL document CHEMBL1201862, “PubChem BioAssay data set” (2004).
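Interpolation was linear, between the two tested concentrations surrounding the appropriate level; five concentrations were tested over 48 hours in 96-well plates. GI50 is the concentration that inhibits growth by half.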 Calls of active or inactive are those of the source. No stated cut-off is given here; in the data, active = GI50 up to about 1.1 µM and inactive = higher.

How the values were obtained:
Test in all cases: NCI-60 cell line screen, 48 h
[1] = tested on: COLO 205
[2] = tested on: SR
[3] = tested on: EKVX
[4] = tested on: CCRF-CEM
[5] = tested on: TK-10
[6] = tested on: HT-29
[7] = tested on: A498
[8] = tested on: OVCAR-8
[9] = tested on: SN12C
[10] = tested on: M14
[11] = tested on: SW-620
[12] = tested on: T47D
[13] = tested on: NCI-H460
[14] = tested on: SNB-75
[15] = tested on: NCI-H23
[16] = tested on: RPMI-8226
[17] = tested on: NCI-H226
[18] = tested on: UACC-62
[19] = tested on: HCC 2998
[20] = tested on: HOP-92
[21] = tested on: PC-3
[22] = tested on: SF-268
[23] = tested on: SNB-19
[24] = tested on: HOP-62
[25] = tested on: OVCAR-5
[26] = tested on: U-251
[27] = tested on: MDA-MB-435
[28] = tested on: SK-OV-3
[29] = tested on: CAKI-1
[30] = tested on: SF-295
[31] = tested on: SK-MEL-28
[32] = tested on: 786-0
[33] = tested on: IGROV-1
[34] = tested on: MOLT-4
[35] = tested on: LOX IMVI
[36] = tested on: RXF 393
[37] = tested on: NCI-H522
[38] = tested on: A549
[39] = tested on: OVCAR-3
[40] = tested on: MCF7
[41] = tested on: ACHN
[42] = tested on: Hs-578T
[43] = tested on: HCT-15
[44] = tested on: MDA-MB-231
[45] = tested on: BT-549
[46] = tested on: K562
[47] = tested on: SF-539
[48] = tested on: DU-145
[49] = tested on: MDA-N
[50] = tested on: SK-MEL-5
[51] = tested on: UACC-257
[52] = tested on: SK-MEL-2
[53] = tested on: HCT-116
[54] = tested on: UO-31
[55] = tested on: NCI/ADR-RES
[56] = tested on: KM12
[57] = tested on: HL-60
[58] = tested on: Malme-3M
[59] = tested on: OVCAR-4

O=C(CCc1cc(O)cc(O)c1)NCCc1cc(OCc2ccccc2)cc(OCc2ccccc2)c1
GI50 [1]: 20.5 µM (inactive) | GI50 [2]: 4.83 µM (inactive) | GI50 [3]: 7.24 µM (inactive) | GI50 [4]: 7.8 µM (inactive) | GI50 [5]: 21.4 µM (inactive) | GI50 [6]: 14.8 µM (inactive) | GI50 [7]: 21.2 µM (inactive) | GI50 [8]: 13.7 µM (inactive) | GI50 [9]: 14.9 µM (inactive) | GI50 [10]: 13.2 µM (inactive) | GI50 [11]: 15.8 µM (inactive) | GI50 [12]: 11.2 µM (inactive) | GI50 [13]: 4.68 µM (inactive) | GI50 [14]: 11 µM (inactive) | GI50 [15]: 10.4 µM (inactive) | GI50 [16]: 7.45 µM (inactive) | GI50 [17]: 15.9 µM (inactive) | GI50 [18]: 16.9 µM (inactive) | GI50 [19]: 19.6 µM (inactive) | GI50 [20]: 17.1 µM (inactive) | GI50 [21]: 8.89 µM (inactive) | GI50 [22]: 15 µM (inactive) | GI50 [23]: 2.41 µM (inactive) | GI50 [24]: 16.4 µM (inactive) | GI50 [25]: 20.2 µM (inactive) | GI50 [26]: 13 µM (inactive) | GI50 [27]: 11.1 µM (inactive) | GI50 [28]: 16.8 µM (inactive) | GI50 [29]: 19.2 µM (inactive) | GI50 [30]: 10.4 µM (inactive) | GI50 [31]: 17.5 µM (inactive) | GI50 [32]: 18.7 µM (inactive) | GI50 [33]: 15.5 µM (inactive) | GI50 [34]: 5.35 µM (inactive) | GI50 [35]: 11.5 µM (inactive) | GI50 [36]: 8.55 µM (inactive) | GI50 [37]: 11.9 µM (inactive) | GI50 [38]: 5.28 µM (inactive) | GI50 [39]: 14.7 µM (inactive) | GI50 [40]: 4.92 µM (inactive) | GI50 [41]: 3.4 µM (inactive) | GI50 [42]: 16.8 µM (inactive) | GI50 [43]: 14.7 µM | GI50 [44]: 10.3 µM (inactive) | GI50 [45]: 16.4 µM (inactive) | GI50 [46]: 4.8 µM (inactive) | GI50 [47]: 16.2 µM (inactive) | GI50 [48]: 15.8 µM (inactive) | GI50 [49]: 13.7 µM (inactive) | GI50 [50]: 10.6 µM (inactive) | GI50 [51]: 23.6 µM (inactive) | GI50 [52]: 10.2 µM (inactive) | GI50 [53]: 12.9 µM (inactive) | GI50 [54]: 3.55 µM (inactive) | GI50 [55]: 17.8 µM (inactive) | GI50 [56]: 12.6 µM (inactive) | GI50 [57]: 2.7 µM (inactive)

CCOc1cc(/C=N/c2ccc(Oc3ccc(Cl)cc3)c(Cl)c2)ccc1O
GI50 [1]: 17.5 µM (inactive) | GI50 [2]: 33.2 µM (inactive) | GI50 [3]: 18.5 µM (inactive) | GI50 [4]: 16.1 µM (inactive) | GI50 [5]: 43.1 µM (inactive) | GI50 [6]: 20.8 µM (inactive) | GI50 [7]: 12.4 µM (inactive) | GI50 [8]: 23 µM (inactive) | GI50 [9]: 20.8 µM (inactive) | GI50 [10]: 29.8 µM (inactive) | GI50 [11]: 29.6 µM (inactive) | GI50 [12]: 36.3 µM (inactive) | GI50 [13]: 18.6 µM (inactive) | GI50 [14]: 17.8 µM (inactive) | GI50 [15]: 22.7 µM (inactive) | GI50 [16]: 29.7 µM (inactive) | GI50 [17]: 26.9 µM (inactive) | GI50 [18]: 27.7 µM (inactive) | GI50 [19]: 19.3 µM (inactive) | GI50 [20]: 19.7 µM (inactive) | GI50 [21]: 31.8 µM (inactive) | GI50 [22]: 15.7 µM (inactive) | GI50 [23]: 25.2 µM (inactive) | GI50 [24]: 23.1 µM (inactive) | GI50 [25]: 28.1 µM (inactive) | GI50 [26]: 21.7 µM (inactive) | GI50 [27]: 35.3 µM (inactive) | GI50 [28]: 26.1 µM (inactive) | GI50 [29]: 19.8 µM (inactive) | GI50 [30]: 18.7 µM (inactive) | GI50 [31]: 25.2 µM (inactive) | GI50 [32]: 17 µM (inactive) | GI50 [33]: 19.1 µM (inactive) | GI50 [34]: 18.7 µM (inactive) | GI50 [35]: 19.8 µM (inactive) | GI50 [37]: 13.7 µM (inactive) | GI50 [38]: 30.1 µM (inactive) | GI50 [39]: 29.6 µM (inactive) | GI50 [40]: 31.9 µM (inactive) | GI50 [41]: 32.4 µM (inactive) | GI50 [42]: 18.8 µM (inactive) | GI50 [43]: 22.5 µM | GI50 [44]: 19.6 µM (inactive) | GI50 [45]: 17.8 µM (inactive) | GI50 [47]: 22.8 µM (inactive) | GI50 [58]: 23.3 µM (inactive) | GI50 [48]: 50.5 µM (inactive) | GI50 [49]: 25 µM (inactive) | GI50 [50]: 22.3 µM (inactive) | GI50 [51]: 27.1 µM (inactive) | GI50 [52]: 24.5 µM (inactive) | GI50 [53]: 17.9 µM (inactive) | GI50 [59]: 34 µM (inactive) | GI50 [54]: 11.8 µM (inactive) | GI50 [55]: 21.8 µM (inactive) | GI50 [56]: 18.2 µM (inactive) | GI50 [57]: 15.3 µM (inactive)

O=C(/C(=C(/Br)I)c1ccccc1)c1ccccc1
GI50 [1]: 17.6 µM (inactive) | GI50 [2]: 27 µM (inactive) | GI50 [3]: 29 µM (inactive) | GI50 [4]: 5.56 µM (inactive) | GI50 [5]: 27.2 µM (inactive) | GI50 [6]: 17.9 µM (inactive) | GI50 [7]: 15 µM (inactive) | GI50 [8]: 23.5 µM (inactive) | GI50 [9]: 17.8 µM (inactive) | GI50 [10]: 16.3 µM (inactive) | GI50 [12]: 22.6 µM (inactive) | GI50 [13]: 19.1 µM (inactive) | GI50 [14]: 26.3 µM (inactive) | GI50 [15]: 50.4 µM (inactive) | GI50 [16]: 7.1 µM (inactive) | GI50 [17]: 19.3 µM (inactive) | GI50 [18]: 18.4 µM (inactive) | GI50 [19]: 13.6 µM (inactive) | GI50 [20]: 18.8 µM (inactive) | GI50 [21]: 28.6 µM (inactive) | GI50 [22]: 22.1 µM (inactive) | GI50 [23]: 38.2 µM (inactive) | GI50 [25]: 48.6 µM (inactive) | GI50 [26]: 25.8 µM (inactive) | GI50 [27]: 28.8 µM (inactive) | GI50 [28]: 38.5 µM (inactive) | GI50 [29]: 38.5 µM (inactive) | GI50 [30]: 27.2 µM (inactive) | GI50 [32]: 18.2 µM (inactive) | GI50 [33]: 29.7 µM (inactive) | GI50 [34]: 15.2 µM (inactive) | GI50 [35]: 13.9 µM (inactive) | GI50 [36]: 16.8 µM (inactive) | GI50 [38]: 26.9 µM (inactive) | GI50 [39]: 21.4 µM (inactive) | GI50 [40]: 30.9 µM (inactive) | GI50 [41]: 29.4 µM (inactive) | GI50 [42]: 40.1 µM (inactive) | GI50 [43]: 25.1 µM | GI50 [44]: 25.5 µM (inactive) | GI50 [45]: 22.9 µM (inactive) | GI50 [46]: 14.4 µM (inactive) | GI50 [47]: 17.2 µM (inactive) | GI50 [58]: 14.5 µM (inactive) | GI50 [48]: 14.3 µM (inactive) | GI50 [49]: 28.5 µM (inactive) | GI50 [50]: 14.6 µM (inactive) | GI50 [51]: 17.8 µM (inactive) | GI50 [53]: 16 µM (inactive) | GI50 [54]: 22.7 µM (inactive) | GI50 [55]: 16.8 µM (inactive) | GI50 [56]: 19.5 µM (inactive) | GI50 [57]: 28 µM (inactive)
